Source: US20240383954A1, “PEPTIDE INHIBITORS OF INTERLEUKIN-23 RECEPTOR AND THEIR USE TO TREAT INFLAMMATORY DISEASES” (Janssen Biotech, Inc., priority 2020, published 2024)
Starred links: 1 amine or outer side, 2 acyl side, 3 side chain; linkers in the order of their positions; H or OH if unused. Positions of bridges follow the written chain, without caps; N, C: chain ends. Non-standard residues stand in square brackets, D forms with d. Residues, ends and D or L forms follow the SMILES beside them. *: point of attachment. Trp(7-Ph) = N[C@@H](Cc1c[nH]c2c(-c3ccccc3)cccc12)C(=O)O; X3 = C[C@H](c1ccc2ccccc2c1)[C@H](N[*:1])C(=O)[*:2]; Trp(7-Me) = Cc1cccc2c(C[C@H](N)C(=O)O)c[nH]c12; Phe(3R-Me) = C[C@H](c1ccccc1)[C@H](N)C(=O)O; Abu(4-yl) = O=C([C@H](CC[*:3])N[*:1])[*:2]; dPhe(4-NH2) = Nc1ccc(C[C@@H](N)C(=O)O)cc1; Phe(4-NH2) = Nc1ccc(C[C@H](N)C(=O)O)cc1; 2Nal = N[C@@H](Cc1ccc2ccccc2c1)C(=O)O; AEF = NCCOc1ccc(C[C@H](N)C(=O)O)cc1; αMeF = C[C@](N)(Cc1ccccc1)C(=O)O; Pen = CC(C)(S)[C@H](N)C(=O)O; αMeK = C[C@](N)(CCCCN)C(=O)O; αMeC = C[C@](N)(CS)C(=O)O; Thp = NC1(C(=O)O)CCOCC1; Ac3c = NC1(C(=O)O)CC1; Boc = CC(C)(C)OC(=O)*; Propionyl = CCC(=O)*

These molecules were tested against T1, IL-23R (Homo sapiens, UniProt Q5VWK5) (assay: cell-based). Settings: not given.
T1 sequence (Q5VWK5 24-629): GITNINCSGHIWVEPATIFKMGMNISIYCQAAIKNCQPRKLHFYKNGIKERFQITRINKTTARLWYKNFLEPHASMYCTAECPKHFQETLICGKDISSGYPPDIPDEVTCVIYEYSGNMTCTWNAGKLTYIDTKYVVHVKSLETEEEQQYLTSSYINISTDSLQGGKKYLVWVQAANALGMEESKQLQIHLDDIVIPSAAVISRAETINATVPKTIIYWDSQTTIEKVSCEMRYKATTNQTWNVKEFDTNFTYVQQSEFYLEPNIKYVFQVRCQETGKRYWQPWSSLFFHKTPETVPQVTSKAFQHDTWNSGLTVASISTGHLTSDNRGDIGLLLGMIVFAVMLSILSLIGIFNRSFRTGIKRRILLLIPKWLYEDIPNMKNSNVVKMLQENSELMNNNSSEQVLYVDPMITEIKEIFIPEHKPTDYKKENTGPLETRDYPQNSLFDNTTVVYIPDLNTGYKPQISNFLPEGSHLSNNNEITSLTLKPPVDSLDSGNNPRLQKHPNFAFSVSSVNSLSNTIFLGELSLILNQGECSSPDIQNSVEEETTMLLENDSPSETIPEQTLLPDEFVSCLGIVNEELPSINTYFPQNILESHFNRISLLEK
`CC(=O)NCCCC[C@@H]1NC(=O)[C@H](Cc2c[nH]c3c(-c4ccccc4)cccc23)NC(=O)[C@H]([C@@H](C)O)NC(=O)[C@H](CCC(N)=O)NC(=O)[C@@H](NC(=O)[C@@H](CCCNC(=N)N)NC(C)=O)CCSC[C@@H](C(=O)N[C@@H](Cc2ccc(OCCN)cc2)C(=O)N[C@@H](Cc2ccc3ccccc3c2)C(=O)N[C@@](C)(CCCCN)C(=O)N[C@@H](CCCCNC(C)=O)C(=O)N[C@@H](CC(N)=O)C(=O)N[C@@](C)(Cc2ccccc2)C(N)=O)NC1=O` [Compound 11, Ac-[(D)Arg]-[Abu]-Q-T-[W(7-Ph)]-[Lys(Ac)]-[Cys]-Phe[4-(2-aminoethoxy)]-[2-Nal]-[a-MeLys]-[Lys(Ac)]-N-[a-MePhe]-NH2] (Ac-[dR][Abu(4-yl)]QT[Trp(7-Ph)]K(Ac)C[AEF][2Nal][αMeK]K(Ac)N[αMeF]-NH2; thioether 2-7) was tested, and the IC50 was 13.9 nM.
In the case of `CC(=O)NCCCC[C@@H]1NC(=O)[C@H](Cc2c[nH]c3c(-c4ccccc4)cccc23)NC(=O)[C@H]([C@@H](C)O)NC(=O)[C@H](CCC(N)=O)NC(=O)[C@@H](NC(C)=O)CCSC[C@@H](C(=O)N[C@@H](Cc2ccc(OCCN)cc2)C(=O)N[C@@H](Cc2ccc3ccccc3c2)C(=O)N[C@@](C)(CCCCN)C(=O)N[C@@H](CCCCNC(C)=O)C(=O)N[C@@H](CC(N)=O)C(=O)N[C@@](C)(Cc2ccccc2)C(N)=O)NC1=O` [Compound 67, Ac-[Abu]-Q-T-[W(7-Ph)]-[Lys(Ac)]-[Cys]-Phe[4-(2-aminoethoxy)]-[2-Nal]-[a-MeLys]-[Lys(Ac)]-N-[a-MePhe]-NH2] (Ac-[Abu(4-yl)]QT[Trp(7-Ph)]K(Ac)C[AEF][2Nal][αMeK]K(Ac)N[αMeF]-NH2; thioether 1-6), the IC50 is reported as 5.52 nM.
With `CC(=O)NCCCC[C@@H]1NC(=O)[C@H](Cc2c[nH]c3c(C)cccc23)NC(=O)[C@H]([C@@H](C)O)NC(=O)[C@H](CC(N)=O)NC(=O)[C@@H](NC(C)=O)C(C)(C)SSC(C)(C)[C@@H](C(=O)N[C@@H](Cc2ccc(OCCN)cc2)C(=O)N[C@@H](Cc2ccc3ccccc3c2)C(=O)N[C@@](C)(CCCCN)C(=O)N[C@@H](CCCCNC(C)=O)C(=O)N[C@@H](CC(N)=O)C(=O)N[C@H](CC(C)C)C(=O)N[C@@](C)(Cc2ccccc2)C(N)=O)NC1=O` [Compound 68, Ac-[Pen]-N-T-[W(7-Me)]-[Lys(Ac)]-[Pen]-Phe[4-(2-aminoethoxy)]-[2-Nal]-[a-MeLys]-[Lys(Ac)]-N-[(D)Leu]-[aMePhe]-am] the IC50 was 7 nM.
`CC(=O)NCCCC[C@@H]1NC(=O)[C@H](Cc2c[nH]c3c(C)cccc23)NC(=O)[C@H]([C@@H](C)O)NC(=O)[C@H](CC(N)=O)NC(=O)[C@@H](NC(C)=O)C(C)(C)SSC(C)(C)[C@@H](C(=O)N[C@@H](Cc2ccc(OCCN)cc2)C(=O)N[C@@H](Cc2ccc3ccccc3c2)C(=O)N[C@@](C)(CCCCN)C(=O)N[C@@H](CCCCNC(C)=O)C(=O)N[C@@H](CC(N)=O)C(=O)N[C@H](CC(C)C)C(=O)N[C@](C)(Cc2ccccc2)C(N)=O)NC1=O` [Compound 69, Ac-[Pen]-N-T-[W(7-Me)]-[Lys(Ac)]-[Pen]-Phe[4-(2-aminoethoxy)]-[2-Nal]-[a-MeLys]-[Lys(Ac)]-N-[(D)Leu]-[(D)aMePhe]-NH2] was tested, and the IC50 was 2.75 nM.
`CC(=O)NCCCC[C@@H]1NC(=O)[C@H](Cc2c[nH]c3c(C)cccc23)NC(=O)[C@H]([C@@H](C)O)NC(=O)[C@H](CC(N)=O)NC(=O)[C@@H](NC(C)=O)C(C)(C)SSC(C)(C)[C@@H](C(=O)N[C@@H](Cc2ccc(OCCN)cc2)C(=O)N[C@@H](Cc2ccc3ccccc3c2)C(=O)N[C@@](C)(CCCCN)C(=O)N[C@@H](CCCCNC(C)=O)C(=O)N[C@@H](CC(N)=O)C(=O)NC(C)(C)C(=O)NCCCCCC(N)=O)NC1=O` [Compound 70, Ac-[Pen]-N-T-[W(7-Me)]-[Lys(Ac)]-[Pen]-Phe[4-(2-aminoethoxy)]-[2-Nal]-[a-MeLys]-[Lys(Ac)]-N-[Aib-Ahx]-NH2] showed an IC50 of 1.22 nM.

Each molecule was assayed against T1, IL-23R (assay: cell-based). Settings: PBMC pSTAT3 IC50 (nM), PBMCs from healthy donors, IL-23 5 ng/mL, 30 minutes, phosphorylated STAT3.
In the case of `CC(=O)NCCCC[C@@H]1NC(=O)[C@H](Cc2c[nH]c3c(C)cccc23)NC(=O)[C@H]([C@@H](C)O)NC(=O)[C@H](CC(N)=O)NC(=O)[C@@H](NC(=O)[C@H](N)CCCNC(=N)N)C(C)(C)SSC(C)(C)[C@@H](C(=O)N[C@@H](Cc2ccc(OCCNC(=O)OC(C)(C)C)cc2)C(=O)N[C@@H](Cc2ccc3ccccc3c2)C(=O)NC2(C(=O)N[C@@H](CCC(=O)O)C(=O)N[C@@H](CC(N)=O)C(=O)N[C@@](C)(Cc3ccccc3)C(N)=O)CCOCC2)NC1=O` [Compound 305, NH2-r-Pen-N-T-7MeW-K(Ac)-Pen-AEF(Boc)-2Nal-THP-E-N-aMePhe-CONH2] (H-[dR][Pen]NT[Trp(7-Me)]K(Ac)[Pen][AEF](Boc)[2Nal][Thp]EN[αMeF]-NH2; disulfide 2-7), the IC50 is reported as 17 nM.
For `CC(=O)Nc1ccc(C[C@@H]2NC(=O)[C@H](Cc3c[nH]c4c(C)cccc34)NC(=O)[C@H]([C@@H](C)O)NC(=O)[C@H](CC(N)=O)NC(=O)[C@@H](NC(=O)[C@@H](CCCNC(=N)N)NC(C)=O)C(C)(C)SSC(C)(C)[C@@H](C(=O)N[C@@H](Cc3ccc(OCCN)cc3)C(=O)N[C@@H](Cc3ccc4ccccc4c3)C(=O)NC3(C(=O)N[C@@H](CCC(=O)O)C(=O)N[C@@H](CC(N)=O)C(=O)NC4(C(N)=O)CCOCC4)CC3)NC2=O)cc1` [Compound 306, MeCO-r-Pen-N-T-7MeW-Paf(Ac)-Pen-AEF-2Nal-Acpx-E-N-THP---CONH2] (Ac-[dR][Pen]NT[Trp(7-Me)][Phe(4-NH2)](Ac)[Pen][AEF][2Nal][Ac3c]EN[Thp]-NH2; disulfide 2-7), the IC50 was 9.6 nM.
`CCC(=O)N[C@H](CCCNC(=N)N)C(=O)N[C@@H]1C(=O)N[C@@H](CCC(N)=O)C(=O)N[C@@H]([C@@H](C)O)C(=O)N[C@@H](Cc2c[nH]c3ccccc23)C(=O)N[C@@H](CCC(N)=O)C(=O)N[C@H](C(=O)N[C@@H](Cc2ccc(OCCN)cc2)C(=O)N[C@H](C(=O)NC2(C(=O)N[C@@H](CCC(=O)O)C(=O)N[C@@H](CC(N)=O)C(=O)NC3(C(N)=O)CCOCC3)CCOCC2)[C@H](C)c2ccc3ccccc3c2)C(C)(C)SSC1(C)C` [Compound 307, EtCO-r-Pen-Q-T-W-Q-Pen-AEF-bMe2Nal(2S,3R)-THP-E-N-THP---CONH2] (Propionyl-[dR][Pen]QTWQ[Pen][AEF][X3][Thp]EN[Thp]-NH2; disulfide 2-7) gave an IC50 of 52 nM.
Molecule `CC(=O)NCCCC[C@@H]1NC(=O)[C@H](Cc2c[nH]c3c(C)cccc23)NC(=O)[C@H]([C@@H](C)O)NC(=O)[C@H](CC(N)=O)NC(=O)[C@@H](NC(=O)[C@@H](CCCNC(=N)N)NC(C)=O)C(C)(C)SSC(C)(C)[C@@H](C(=O)N[C@@H](Cc2ccc(OCCNC(C)=O)cc2)C(=O)N[C@@H](Cc2ccc3ccccc3c2)C(=O)NC2(C(=O)N[C@@H](CCC(=O)O)C(=O)N[C@@H](CC(N)=O)C(=O)NC3(C(N)=O)CCOCC3)CC2)NC1=O` [Compound 308, MeCO-r-Pen-N-T-7MeW-K(Ac)-Pen-AEF(Ac)-2Nal-Acpx-E-N-THP-CONH2] (Ac-[dR][Pen]NT[Trp(7-Me)]K(Ac)[Pen][AEF](Ac)[2Nal][Ac3c]EN[Thp]-NH2; disulfide 2-7) has an IC50 of 8 nM.
`CC(=O)NCCCC[C@@H]1NC(=O)[C@H](Cc2c[nH]c3c(C)cccc23)NC(=O)[C@H]([C@@H](C)O)NC(=O)[C@H](CC(N)=O)NC(=O)[C@@H](NC(=O)[C@@H](CCCNC(=N)N)NC(C)=O)CSSC[C@@](C)(C(=O)N[C@@H](Cc2ccc(OCCN)cc2)C(=O)N[C@@H](Cc2ccc3ccccc3c2)C(=O)NC2(C(=O)N[C@@H](CCC(=O)O)C(=O)N[C@@H](CC(N)=O)C(=O)NC3(C(N)=O)CCOCC3)CC2)NC1=O` [Compound 310, MeCO-r-C-N-T-7MeW-K(Ac)- aMeC-AEF-2Nal-Acpx-E-N-THP-CONH2] (Ac-[dR]CNT[Trp(7-Me)]K(Ac)[αMeC][AEF][2Nal][Ac3c]EN[Thp]-NH2; disulfide 2-7) showed an IC50 of 9.9 nM.
With `CC(=O)NCCCC[C@@H]1NC(=O)[C@H](Cc2c[nH]c3c(C)cccc23)NC(=O)[C@H]([C@@H](C)O)NC(=O)[C@H](CC(N)=O)NC(=O)[C@@H](NC(C)=O)C(C)(C)SSC(C)(C)[C@@H](C(=O)N[C@@H](Cc2ccc(OCCN)cc2)C(=O)N[C@@H](Cc2ccc3ccccc3c2)C(=O)N[C@@](C)(CCCCN)C(=O)N[C@@H](CCCCNC(C)=O)C(=O)N[C@@H](CC(N)=O)C(=O)N[C@H](C(N)=O)[C@H](C)c2ccccc2)NC1=O` [Compound 312, MeCO-Pen-N-T-7MeTrp-K(Ac)-Pen-AEF-2Nal-aMeK-K(Ac)-N-bMePhe(S,R)-CONH2] the IC50 was 90 nM.
In the case of `CC(=O)NCCCC[C@@H]1NC(=O)[C@H](Cc2c[nH]c3c(C)cccc23)NC(=O)[C@H]([C@@H](C)O)NC(=O)[C@H](CC(N)=O)NC(=O)[C@@H](NC(=O)[C@@H](CCCNC(=N)N)NC(C)=O)C(C)(C)SSC(C)(C)[C@@H](C(=O)N[C@@H](Cc2ccc(OCCN)cc2)C(=O)N[C@@H](Cc2ccc3ccccc3c2)C(=O)NC2(C(=O)N[C@@H](CCC(=O)O)C(=O)N[C@@H](CC(N)=O)C(=O)N[C@H](C(N)=O)[C@H](C)c3ccccc3)CCOCC2)NC1=O` [Compound 313, MeCO-r-Pen-N-T-7MeTrp-K(Ac)-Pen-AEF-2Nal-THP-E-N-bMePhe(S,R)---CONH2] (Ac-[dR][Pen]NT[Trp(7-Me)]K(Ac)[Pen][AEF][2Nal][Thp]EN[Phe(3R-Me)]-NH2; disulfide 2-7), the IC50 is reported as 21 nM.
`CC(=O)NCCCC[C@@H]1NC(=O)[C@H](Cc2c[nH]c3c(C)cccc23)NC(=O)[C@H]([C@@H](C)O)NC(=O)[C@H](CC(N)=O)NC(=O)[C@@H](NC(=O)[C@@H](CCCNC(=N)N)NC(C)=O)C(C)(C)SSC(C)(C)[C@@H](C(=O)N[C@@H](Cc2ccc(OCCN)cc2)C(=O)N[C@@H](Cc2ccc3ccccc3c2)C(=O)NC2(C(=O)N[C@@H](CCC(=O)O)C(=O)N[C@@H](CC(N)=O)C(=O)N[C@@H](Cc3c[nH]cn3)C(=O)N[C@H](Cc3ccc(N)cc3)C(N)=O)CC2)NC1=O` [Compound 315, MeCO-r-Pen-N-T-7MeW-K(Ac)-Pen-AEF-2Nal-Acpx-E-N-H-4AmDPhe---CONH2] (Ac-[dR][Pen]NT[Trp(7-Me)]K(Ac)[Pen][AEF][2Nal][Ac3c]ENH[dPhe(4-NH2)]-NH2; disulfide 2-7) gave an IC50 of 2 nM.
For `CC(=O)NCCCC[C@@H]1NC(=O)[C@H](Cc2c[nH]c3c(C)cccc23)NC(=O)[C@H]([C@@H](C)O)NC(=O)[C@H](CC(N)=O)NC(=O)[C@@H](NC(C)=O)C(C)(C)SSC(C)(C)[C@@H](C(=O)N[C@@H](Cc2ccc(OCCN)cc2)C(=O)N[C@@H](Cc2ccc3ccccc3c2)C(=O)NC2(C(=O)N[C@@H](CCC(=O)O)C(=O)N[C@@H](CC(N)=O)C(=O)NC3(C(N)=O)CCOCC3)CC2)NC1=O` [Compound 317, MeCO-Pen-N-T-7MeW-K(Ac)-Pen-AEF-2Nal-Acpx-E-N-THP---CONH2], the IC50 was 13 nM.
